Reference: patent publication US20230053688A1, “METHODS TO ALTER LATENCY IN EBV+ MALIGNANCIES” (Cornell University, priority 2020, published 2023)
Structures can show the parent of a compound that is named as a salt. Where two headings read alike, the source gives them in different places.

Test system: LMP1 expression in Kem I cells
Test: microbe, parasite or virus in culture
Type: cell-based, EBV
Conditions: for fold induction at 2.5 µM / fold induction at 1 µM: human gammaherpesvirus 4, 48 h
[1] = Kem I cells, 2.5 uM, 48 hours, average of replicates 1 and 2
[2] = Kem I cells, 2.5 uM, 48 hours, fold change in LMP1 transcript vs vehicle
[3] = read-out: Average LMP1 Fold Increase, Kem I cells, dose 2.5 uM, 48 hours, LMP1 transcript by in-well qRT-PCR, average of the two replicates
[4] = read-out: Replicate 1-LMP1 Fold Increase, Kem I cells, dose 2.5 uM, 48 hours, LMP1 transcript by in-well qRT-PCR, screen replicate 1
[5] = read-out: Replicate 2-LMP1 Fold Increase, Kem I cells, dose 2.5 uM, 48 hours, LMP1 transcript by in-well qRT-PCR, screen replicate 2
[6] = Kem I cells, dose 2.5 uM, 48 hours, LMP1 transcript by in-well qRT-PCR, average of the two replicates
[7] = Kem I cells, dose 2.5 uM, 48 hours, LMP1 transcript by in-well qRT-PCR, screen replicate 1
[8] = Kem I cells, dose 2.5 uM, 48 hours, LMP1 transcript by in-well qRT-PCR, screen replicate 2
[9] = read-out: Average LMP1 Fold Increase, Kem I cells, 2.5 uM, 48 hours, average of replicates 1 and 2
[10] = read-out: Replicate 1-LMP1 Fold Increase, Kem I cells, 2.5 uM, 48 hours, fold change in LMP1 transcript vs vehicle
[11] = read-out: Replicate 2-LMP1 Fold Increase, Kem I cells, 2.5 uM, 48 hours, fold change in LMP1 transcript vs vehicle

Compound | Average LMP1 Fold Increase [1] | Replicate 1-LMP1 Fold Increase [2] | Replicate 2-LMP1 Fold Increase [2] | fold induction at 2.5 µM [9] | fold induction at 2.5 µM [10] | fold induction at 2.5 µM [11] | further results
OC[C@H]1O[C@@H](c2ccc(Cl)c(Cc3ccc(O[C@H]4CCOC4)cc3)c2)[C@H](O)[C@@H](O)[C@@H]1O [Empagliflozin (BI 10773)] | 0.58 | 0.67 | 0.50 |  |  |  | 
O=c1oc2cc(O)ccc2s1 [Tioxolone] |  |  |  |  |  |  | fold induction at 2.5 µM [3]: 0.55; fold induction at 2.5 µM [4]: 0.7; fold induction at 2.5 µM [5]: 0.41
O=c1ncccn1[C@@H]1O[C@H](CO)[C@@H](O)[C@H]1O [Zebularine] |  |  |  |  |  |  | fold induction at 2.5 µM [3]: 0.52; fold induction at 2.5 µM [4]: 0.24; fold induction at 2.5 µM [5]: 0.79
COc1cc2ncnc(Nc3ccc(Cl)cc3F)c2cc1OC [ZM 306416] |  |  |  |  |  |  | Average LMP1 Fold Increase [6]: 0.85 fold; Replicate 1-LMP1 Fold Increase [7]: 0.70 fold; Replicate 2-LMP1 Fold Increase [8]: 1.00 fold
CS(=O)(=O)N1CCN(Cc2cc3nc(-c4cccc5[nH]ncc45)nc(N4CCOCC4)c3s2)CC1 [GDC-0941] | 0.92 | 0.75 | 1.09 |  |  |  | 
Cc1cccc(-c2[nH]ncc2-c2ccc3ncccc3n2)n1 [RepSox] |  |  |  |  |  |  | Average LMP1 Fold Increase: 0.64; Replicate 1-LMP1 Fold Increase: 0.96; Replicate 2-LMP1 Fold Increase: 0.33
CC(C)CC(=O)Nc1[nH]nc2c1CN(C(=O)C1CCN(C)CC1)C2(C)C [PHA-793887] |  |  |  | 2.82 | 0.58 | 5.05 | 
COc1cc2c(cc1OC)CN(CCc1ccc(NC(=O)c3cc(OC)c(OC)cc3NC(=O)c3cnc4ccccc4c3)cc1)CC2 [Tariquidar] |  |  |  |  |  |  | fold induction at 2.5 µM [3]: 0.71; fold induction at 2.5 µM [4]: 0.56; fold induction at 2.5 µM [5]: 0.87
Cc1noc(-c2ccc(CSCCC(=O)O)cc2)c1NC(=O)OC(C)c1ccccc1Cl (stereo not drawn) [Ki16425] | 0.62 | 0.80 | 0.45 |  |  |  | 
CNC(=O)c1ccccc1Nc1nc(Nc2ccc(N3CCOCC3)cc2OC)ncc1Cl [TAE226 (NVP-TAE226)] |  |  |  |  |  |  | Average LMP1 Fold Increase [6]: 1.35 fold; Replicate 1-LMP1 Fold Increase [7]: 1.38 fold; Replicate 2-LMP1 Fold Increase [8]: 1.31 fold
O=C(c1ccc(F)cc1)N1CCC[C@H](c2nc(-c3ccc(F)cc3)no2)C1 [ADX-47273] | 0.58 | 0.81 | 0.35 |  |  |  | 
Cc1ccc(-c2cc(C(F)(F)F)nn2-c2ccc(S(N)(=O)=O)cc2)cc1 [Celecoxib] |  |  |  | 0.62 | 0.63 | 0.62 | 
COc1cc2nc(N3CCN(C(=O)C4COc5ccccc5O4)CC3)nc(N)c2cc1OC (stereo not drawn) [Doxazosin Mesylate] |  |  |  | 0.81 | 0.67 | 0.95 | 
Oc1cc(O)cc(/C=C/c2ccc(O)c(O)c2)c1 [Piceatannol] |  |  |  | 0.75 | 0.83 | 0.66 | 
C[C@]12CC[C@@H]3c4ccc(O)cc4C[C@@H](CCCCCCCCC[S+]([O-])CCCC(F)(F)C(F)(F)F)[C@H]3[C@@H]1CC[C@@H]2O (stereo partly drawn) [Fulvestrant] |  |  |  | 0.17 | 0.16 | 0.18 | 
COc1ccccc1S(=O)(=O)Nc1ccc2c(c1)CN(C)C(=O)N2 [PFI-1 (PF-6405761)] | 0.78 | 0.42 | 1.15 |  |  |  | 
Cc1nc(C(=O)NCC(=O)O)c(O)c2ccc(Oc3ccccc3)cc12 [FG-4592] |  |  |  | 0.22 | 0.19 | 0.24 | 
Nc1nc(N)c2nc(-c3ccccc3)c(N)nc2n1 [Triamterene] |  |  |  |  |  |  | fold induction at 2.5 µM [3]: 0.91; fold induction at 2.5 µM [4]: 0.56; fold induction at 2.5 µM [5]: 1.26

Compound | Average LMP1 Fold Increase [1] | Replicate 1-LMP1 Fold Increase [2] | Replicate 2-LMP1 Fold Increase [2] | fold induction at 2.5 µM [9] | fold induction at 2.5 µM [10] | fold induction at 2.5 µM [11] | further results
O=S(=O)(c1ccccc1)N(CC(F)(F)F)c1ccc(C(O)(C(F)(F)F)C(F)(F)F)cc1 [T0901317] |  |  |  |  |  |  | fold induction at 2.5 µM [3]: 0.44; fold induction at 2.5 µM [4]: 0.41; fold induction at 2.5 µM [5]: 0.47
CC(C)C[C@H](NC(=O)CNC(=O)c1cc(Cl)ccc1Cl)B(O)O [MLN2238] |  |  |  | 112 | 86.8 | 138 | 
Cc1c(C(=O)NN2CCCCC2)nn(-c2ccc(Cl)cc2Cl)c1-c1ccc(Cl)cc1 [Rimonabant] |  |  |  | 0.39 | 0.24 | 0.54 | 
CCOC(=O)C1=C(COCCN)NC(C)=C(C(=O)OC)C1c1ccccc1Cl (stereo not drawn) [Amlodipine] |  |  |  | 2.06 | 0.51 | 3.61 | 
C[C@H](Oc1cc(-c2cnn(C3CCNCC3)c2)cnc1N)c1c(Cl)ccc(F)c1Cl [(S)-crizotinib] | 0.70 | 0.57 | 0.84 |  |  |  | 
COc1c(O)cc2c(c1O)[C@@H]1O[C@H](CO)[C@@H](O)[C@H](O)[C@H]1OC2=O [Bergenin] |  |  |  | 0.86 | 0.65 | 1.07 | 
Cn1cc(/C=C2\C(=O)Nc3cccnc32)c2ccccc21 [GW441756] | 0.80 | 0.70 | 0.89 |  |  |  | 
CCOC(=O)CCNc1cc(N2CCc3ccccc3CC2)nc(-c2ccccn2)n1.Cl [GSK J4 HCl] | 32.34 | 48.53 | 16.15 |  |  |  | 
Cc1[nH]c2ccccc2c1CCNCc1ccc(/C=C/C(=O)NO)cc1 [Panobinostat (LBH589)] | 383.26 | 451.65 | 314.88 |  |  |  | 
CCCC(C)NC(=O)c1ccc(Cl)c(Cl)c1 (stereo not drawn) [NSC 405020] | 0.39 | 0.50 | 0.28 |  |  |  | 
CCOc1nc2cccc(C(=O)O)c2n1Cc1ccc(-c2ccccc2-c2nnn[nH]2)cc1 [Candesartan] |  |  |  | 0.43 | 0.34 | 0.52 | 
CC(C)NCCCn1c(Sc2cc3c(cc2I)OCO3)nc2c(N)ncnc21 [PU-H71] |  |  |  |  |  |  | fold induction at 1 µM (read-out: Average LMP1 Fold Increase, Kem I cells, 1 uM, 48 hours, average of replicates 1 and 2): 9.03; fold induction at 1 µM (read-out: Replicate 1-LMP1 Fold Increase, Kem I cells, 1 uM, 48 hours, fold change in LMP1 transcript vs vehicle): 15.3; fold induction at 1 µM (read-out: Replicate 2-LMP1 Fold Increase, Kem I cells, 1 uM, 48 hours, fold change in LMP1 transcript vs vehicle): 2.79
CCCN[C@H]1CCc2nc(N)sc2C1 [Pramipexole] |  |  |  | 0.93 | 0.6 | 1.27 | 
Cc1ccc(S(=O)(=O)Cc2nc(-c3ccc(C(=O)NCc4cccnc4)cc3)oc2C)cc1 [STF-118804] | 0.10 | 0.08 | 0.11 |  |  |  | 
S=C=Nc1cccc(NC(=S)NCCCCNC(=S)Nc2cccc(N=C=S)c2)c1 [MRS 2578] | 0.47 | 0.64 | 0.31 |  |  |  | 
CCc1c(C(=O)C(N)=O)c2c(OCC(=O)O)cccc2n1Cc1ccccc1 [Varespladib (LY315920)] |  |  |  |  |  |  | Average LMP1 Fold Increase [6]: 0.52 fold; Replicate 1-LMP1 Fold Increase [7]: 0.35 fold; Replicate 2-LMP1 Fold Increase [8]: 0.69 fold
COCC[n+]1c2c(n(Cc3cnccn3)c1C)C(=O)c1ccccc1C2=O.[Br-] [YM155 (Sepantronium Bromide)] |  |  |  |  |  |  | Average LMP1 Fold Increase [6]: 0.00 fold; Replicate 1-LMP1 Fold Increase [7]: 0.00 fold; Replicate 2-LMP1 Fold Increase [8]: 0.00 fold
CC(C)(C)Cn1c(N)nc2ccc(-c3[nH]c(C(C)(C)C)nc3-c3ccc(F)cc3)nc21 [LY2228820] | 0.60 | 0.63 | 0.56 |  |  |  | 
